# Several values for one entry are separate records, joined by “and”; a condition that tells them apart may be missing. Equal entries are not always repeated.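 Exposure lasted 48 hours, with cells grown in 96-well plates and compounds tested at five concentrations. Abbreviation: GI50, concentration required for 50% inhibition of growth. At the TGI there is no net growth.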
# How the values were obtained:
# Assay in all cases: inhibition of tumour cell growth, NCI panel, 48 h
# [1] = system: TK-10 renal
# [2] = system: COLO 205 colon
# [3] = system: OVCAR-3 ovarian
# [4] = system: CCRF-CEM leukemia
# [5] = system: SF-539 CNS
# [6] = system: SK-MEL-5 melanoma
# [7] = system: RPMI-8226 leukemia
# [8] = system: U251 CNS
# [9] = system: A549 NSCLC
# [10] = system: MCF7 breast
Structure (SMILES),GI50 [1],TGI [1],GI50 [2],TGI [2],GI50 [3],TGI [3],GI50 [4],TGI [4],GI50 [5],TGI [5],GI50 [6],TGI [6],GI50 [7],TGI [7],GI50 [8],TGI [8],GI50 [9],TGI [9],GI50 [10],TGI [10]
C=C1C(=O)O[C@H]2[C@H]1CC/C(COC(=O)NCCc1c[nH]c3ccc(OC)cc13)=C\CC[C@@]1(C)O[C@@H]21,1.61 µM,3.11 µM,1.3 µM,2.78 µM,1.44 µM,3.92 µM,0.64 µM,4.36 µM,1.78 µM,4.01 µM,3.13 µM,10.6 µM,1.44 µM,4.74 µM,4.3 µM,15.9 µM,4.58 µM,18.4 µM,,
CC(=O)OCC1OC(OC2CC3C(C)(C)C(O)CC[C@]3(C)C3CCC45CC4(CC[C@H]5C(C)CC(O)C4OC4(C)C)[C@]23C)C(O)C(O)C1O (stereo partly drawn),15.2 µM,15.7 µM and 29.5 µM,3.4 µM,13.8 µM and 11.9 µM,4.26 µM,12.5 µM and 17.6 µM,2.56 µM,6.74 µM and 6.72 µM,6.32 µM,15.3 µM and 18.7 µM,5.65 µM,10.2 µM and 17.6 µM,2.49 µM,2.41 µM and 7.16 µM,5.17 µM,10.3 µM and 16.5 µM,12.3 µM,18.5 µM and 27.1 µM,,
O=C(C(=O)N1CC2C=CC1CC2)c1c[nH]c2ccccc12 (stereo not drawn),,> 100 µM,,> 100 µM,,,,> 100 µM,,> 100 µM,,> 100 µM,,> 100 µM,,> 100 µM,,> 100 µM,,
Cc1ccc(-c2cc(C3=CC(=O)C=CC3=O)n(-c3ccc(S(N)(=O)=O)cc3)n2)cc1,8.54 µM,48.7 µM,53.9 µM,> 100 µM,44.5 µM,> 100 µM,> 100 µM,> 100 µM,,,83.1 µM,> 100 µM,6.17 µM,70.2 µM,42.4 µM,> 100 µM,> 100 µM,> 100 µM,53.1 µM,> 100 µM
C1OC1CO[C@@H]1CO[C@H]2[C@@H]1OC[C@H]2OCC1CO1 (stereo partly drawn),,> 100 µM,,> 100 µM,,> 100 µM,,> 100 µM,,> 100 µM,,> 100 µM,,> 100 µM,,> 100 µM,,> 100 µM,,
Cc1ccc(SC2=CC(=O)c3nc4ccccc4c4ccnc2c34)cc1,53.6 µM,> 100 µM,39.4 µM,> 85.6 µM,23.2 µM,> 54.7 µM,,,33.9 µM,83 µM,29.1 µM,> 66.8 µM,30.1 µM,> 100 µM,30.2 µM,> 100 µM,> 79.8 µM,> 100 µM,26.8 µM,> 68.6 µM
O=C1c2c(n(Cc3ccccc3)c(=O)n2Cc2ccccc2)C(=O)N1Cc1ccccc1,,> 100 µM,,> 100 µM,,> 100 µM,,> 100 µM,,> 100 µM,,> 100 µM,,> 100 µM,,> 100 µM,,> 100 µM,,
CCN(CCCl)CCCNc1c2ccccc2nc2ccc(OC)cc12,872 µM,,,1.12 µM,119 µM,,67.6 µM,,421 µM,,626 µM,,,,387 µM,,,1300 µM,,
c1ccc2c(c1)[nH]c1cnc3c4cccnc4[nH]c3c12,,26.1 µM,,30.3 µM,,32.2 µM,,54.2 µM,,44.7 µM,,39.9 µM,,58.5 µM,,,,34.7 µM,,
COc1ccc(-c2ccc(-c3ccc(-c4ccc(C(=N)N)cc4)s3)s2)cc1OC,,,1.37 µM,4.57 µM,0.369 µM,1.47 µM,2.24 µM,6.4 µM,15.4 µM,38.7 µM,14.7 µM,60.2 µM,2.86 µM,13.4 µM,,,,,0.39 µM,2.1 µM
CN1CCN(Cc2ccc(NC(=O)c3ccc(C#Cc4c(N)ncc5ccc(F)cc45)cc3)cc2C(F)(F)F)CC1,0.977 µM,1.79 µM,0.901 µM,1.64 µM,1.4 µM,3.68 µM,,,,1.78 µM,0.871 µM,1.58 µM,1.08 µM,2.48 µM,0.851 µM,1.59 µM,1.05 µM,2.19 µM,0.837 µM,1.59 µM
O=Nc1ccc2ccccc2c1O,11.8 µM,24.5 µM,4.79 µM,16.6 µM,1.9 µM,5.01 µM,,,20.8 µM,37.2 µM,2.71 µM,8.41 µM,5.69 µM,31.1 µM,3.11 µM,9.46 µM,6.2 µM,19.6 µM,3.17 µM,12.5 µM
CC#CC1/C(=C\C(=O)OC)CCCC1O (stereo not drawn),,> 100 µM,,,,> 100 µM,,> 100 µM,,> 100 µM,,> 100 µM,,,,> 100 µM,,> 100 µM,,
O=C(Nc1ccc(Cl)cc1)c1cc(-c2ccc(Cl)cc2)c2sc(=O)[nH]c2n1,,,1.63 µM,3.54 µM,2.32 µM,7.45 µM,2.5 µM,40.3 µM,2.43 µM,11.6 µM,0.687 µM,2.99 µM,1.21 µM,14.2 µM,1.88 µM,11.8 µM,2.49 µM,12.7 µM,1.78 µM,9.26 µM
CCCCOC(=O)NC(=O)c1cn(CCSCCOC(=O)NCCCCCCNC(=O)OCCSCCn2cc(C(=O)NC(=O)OCCCC)c(=O)[nH]c2=O)c(=O)[nH]c1=O,,92.4 µM,,> 100 µM,,> 100 µM,,,,> 100 µM,,> 100 µM,,> 100 µM,,74.1 µM,,> 100 µM,,
CCOC(=O)C1SC(=Nc2ccc(Cl)c(Cl)c2)N=C1C (stereo not drawn),,> 100 µM,,76.3 µM,,60.6 µM,,31.3 µM,,> 100 µM,,,,56.9 µM,,> 100 µM,,> 100 µM,,
CC(=O)CCCCO,,> 100 µM,,> 100 µM,,> 100 µM,,> 100 µM,,> 100 µM,,> 100 µM,,> 100 µM,,> 100 µM,,> 100 µM,,

# Source: PubChem BioAssay (NCI)
